Source: patent US4265884A, “Therapeutically active polypeptides or acid addition salts thereof and a process for producing such compounds” (Nordisk Insulinlaboratorium, priority 1978, dated 1981)
Where a SMILES comes first, the peptide text is derived from it.

What was measured:
Langerhans's islets = assay: In vitro glucose stimulated insulin secretion from isolated Langerhans's islets; type: cell-based; settings: for glucose stimulated insulin secretion, percentage of the effect of 10 mmolar glucose alone: hydrochloride, with 10 mM glucose, isolated islets preincubated 24 hours at 37° C
Experimental: In vitro determination of the effect or the peptides on the glucose stimulated insulin secretion was carried out on Langerhans's islets isolated by collagenase technique and preincubated 24 hours at 37° C. Secretion tests were conducted with 10 mM of glucose and three peptide concentrations.
All peptides have been tested in the form of their hydrochlorides together with 10 mmolar glucose, and the value is calculated as a percentage of the effect of 10 mmolar glucose alone.

[1] = pharmacological dosages; cited from earlier work

Q: What does the source list for `COC(=O)[C@H](CC(C)C)NC(=O)[C@H](CCCNC(=N)N)NC(=O)[C@@H](N)CCC(N)=O` [Peptide 1, glnargleuOMe, 2HCl] (H-Gln-Arg-Leu-OMe)?
A: glucose stimulated insulin secretion, percentage of the effect of 10 mmolar glucose alone (Langerhans's islets; peptide 5mM): 151%; glucose stimulated insulin secretion, percentage of the effect of 10 mmolar glucose alone (Langerhans's islets; peptide 5 × 10^-1 mM): 113%; glucose stimulated insulin secretion, percentage of the effect of 10 mmolar glucose alone (Langerhans's islets; peptide 5 × 10^-2 mM): 144%

Q: What does the source list for `COC(=O)[C@H](CC(C)C)NC(=O)[C@H](CCCNC(=N)N)NC(=O)[C@H](CCC(N)=O)NC(=O)[C@@H](N)CC(C)C` [Peptide 3, leuglnargleuOMe, 2HCl] (H-LQRL-OMe)?
A: glucose stimulated insulin secretion, percentage of the effect of 10 mmolar glucose alone (Langerhans's islets; peptide 5mM): 240%; glucose stimulated insulin secretion, percentage of the effect of 10 mmolar glucose alone (Langerhans's islets; peptide 5 × 10^-1 mM): 127%; glucose stimulated insulin secretion, percentage of the effect of 10 mmolar glucose alone (Langerhans's islets; peptide 5 × 10^-2 mM): 124%

Q: Which results are given for `COC(=O)[C@H](CC(C)C)NC(=O)[C@H](CCCNC(=N)N)NC(=O)[C@H](CCC(N)=O)NC(=O)[C@H](CC(C)C)NC(=O)[C@@H](N)CCCNC(=N)N` [Peptide 4, argleuglnargleuOMe, 3HCl] (H-RLQRL-OMe)?
A: glucose stimulated insulin secretion, percentage of the effect of 10 mmolar glucose alone (Langerhans's islets; peptide 5mM): 153%; glucose stimulated insulin secretion, percentage of the effect of 10 mmolar glucose alone (Langerhans's islets; peptide 5 × 10^-1 mM): 120%; glucose stimulated insulin secretion, percentage of the effect of 10 mmolar glucose alone (Langerhans's islets; peptide 5 × 10^-2 mM): 135%

Q: Which results are given for `COC(=O)[C@H](CC(C)C)NC(=O)[C@H](CCCNC(=N)N)NC(=O)[C@H](CCC(N)=O)NC(=O)[C@H](CC(C)C)NC(=O)[C@H](CCCNC(=N)N)NC(=O)[C@H](C)NC(=O)[C@@H](N)CO` [Peptide 5, seralaargleuglnargleuOMe, 3HCl] (H-SARLQRL-OMe)?
A: glucose stimulated insulin secretion, percentage of the effect of 10 mmolar glucose alone (Langerhans's islets; peptide 5mM): 268%; glucose stimulated insulin secretion, percentage of the effect of 10 mmolar glucose alone (Langerhans's islets; peptide 5 × 10^-1 mM): 140%

Q: What does the source list for `COC(=O)[C@H](CC(C)C)NC(=O)[C@H](CCCNC(=N)N)NC(=O)[C@H](CCC(N)=O)NC(=O)[C@H](CC(C)C)NC(=O)[C@H](CCCNC(=N)N)NC(=O)[C@H](C)NC(=O)[C@H](CO)NC(=O)[C@@H](N)CC(=O)O` [Peptide 6, aspseralaargleuglnargleuOMe, 3HCl] (H-DSARLQRL-OMe)?
A: glucose stimulated insulin secretion, percentage of the effect of 10 mmolar glucose alone (Langerhans's islets; peptide 5mM): 142%; glucose stimulated insulin secretion, percentage of the effect of 10 mmolar glucose alone (Langerhans's islets; peptide 5 × 10^-1 mM): 110%

Q: With secretin as the compound, how does the blood sugar level [1] read?
A: Its blood sugar level is “without affecting the blood sugar level”.

Q: And the secretion of insulin [1]?
A: Its secretion of insulin is “potentiate the secretion of insulin”.

Q: And the “effect on insulin liberation from isolated Langerhans's islets (in words)” value (Langerhans's islets; same in vitro conditions as for the present peptides)?
A: The value was “not been possible to make secretin affect the insulin liberation”.
